Tests used:
Type in all cases: cell-based
[1] = biological target: T1, human EGFR exon 20 insertion ASV (V769_D770insASV) (Homo sapiens, UniProt P00533, INS769ASV); assay: Ba/F3-EGFR-Exon20-ASV cell anti-proliferative assay (CellTiter 96 MTS, 72 h); settings: Ba/F3-EGFR-Exon20-ASV cells
T1 construct: expressed in transfected cells; host or cells: Ba/F3 (murine pro-B) cells transduced with lentivirus from pLVX-IRES puro
Description: An expression vector, pLVX-IRES puro (Clontech) coding for human EGFR exon 20 insertions NPG (H773_V774insNPG) or ASV (V769_D770insASV), was transfected into HEK293 cells by the Trans-Lentiviral ORF Packaging System (Thermo Scientific), to produce virus encoding EGFR exon 20 insertions. Ba/F3 (DSMZ) cells maintained in RPMI 1640 medium supplemented with 10% fetal bovine serum, 200 μM L-glutamine/l 200 μg/mL penicillin/200 μg/mL streptomycin (Life Technology) and 10 ng/mL IL-3 (R&D system), were infected by EGFR Exon20 virus and subsequently selected by puromycin (Life Technology) selection and IL-3 depletion. […] The anti-proliferative activity of compounds were determined as follows: BaF3-EGFR-Exon20 cells (NPG or ASV) seeded in 96 well plates (2500 cells/well) were treated with test compound (dissolved in DMSO) at a series of concentrations (4-fold dilution, top concentration: 10,000 nM). The plates were incubated for 72 h in a 37° C. incubator with 5% CO2, and the number of viable cells in each well were measured indirectly by CellTiter 96® Aqueous One Solution Cell Proliferation Assay (Promega) This assay is a colorimetric method for determining the number of viable cells through measurement of their metabolic activity by detection of enzymatic conversion of tetrazolium salts into blue formazan derivatives. Reagent (20 μL) was added into each well, and the plates were returned to the incubator for 2 h. The absorbance in each well was then measured at 490 nm using an Envision plate reader (Perkin Elmer).

[2] = biological target: T2, human EGFR exon 20 insertion NPG (H773_V774insNPG) (Homo sapiens, UniProt P00533, INS772GNP); assay: Ba/F3-EGFR-Exon20-NPG cell anti-proliferative assay (CellTiter 96 MTS, 72 h); settings: Ba/F3-EGFR-Exon20-NPG cells
T2 construct: expressed in transfected cells; host or cells: Ba/F3 (murine pro-B) cells transduced with lentivirus from pLVX-IRES puro
T2 sequence (P00533 with tags, fused parts or gaps INS772GNP): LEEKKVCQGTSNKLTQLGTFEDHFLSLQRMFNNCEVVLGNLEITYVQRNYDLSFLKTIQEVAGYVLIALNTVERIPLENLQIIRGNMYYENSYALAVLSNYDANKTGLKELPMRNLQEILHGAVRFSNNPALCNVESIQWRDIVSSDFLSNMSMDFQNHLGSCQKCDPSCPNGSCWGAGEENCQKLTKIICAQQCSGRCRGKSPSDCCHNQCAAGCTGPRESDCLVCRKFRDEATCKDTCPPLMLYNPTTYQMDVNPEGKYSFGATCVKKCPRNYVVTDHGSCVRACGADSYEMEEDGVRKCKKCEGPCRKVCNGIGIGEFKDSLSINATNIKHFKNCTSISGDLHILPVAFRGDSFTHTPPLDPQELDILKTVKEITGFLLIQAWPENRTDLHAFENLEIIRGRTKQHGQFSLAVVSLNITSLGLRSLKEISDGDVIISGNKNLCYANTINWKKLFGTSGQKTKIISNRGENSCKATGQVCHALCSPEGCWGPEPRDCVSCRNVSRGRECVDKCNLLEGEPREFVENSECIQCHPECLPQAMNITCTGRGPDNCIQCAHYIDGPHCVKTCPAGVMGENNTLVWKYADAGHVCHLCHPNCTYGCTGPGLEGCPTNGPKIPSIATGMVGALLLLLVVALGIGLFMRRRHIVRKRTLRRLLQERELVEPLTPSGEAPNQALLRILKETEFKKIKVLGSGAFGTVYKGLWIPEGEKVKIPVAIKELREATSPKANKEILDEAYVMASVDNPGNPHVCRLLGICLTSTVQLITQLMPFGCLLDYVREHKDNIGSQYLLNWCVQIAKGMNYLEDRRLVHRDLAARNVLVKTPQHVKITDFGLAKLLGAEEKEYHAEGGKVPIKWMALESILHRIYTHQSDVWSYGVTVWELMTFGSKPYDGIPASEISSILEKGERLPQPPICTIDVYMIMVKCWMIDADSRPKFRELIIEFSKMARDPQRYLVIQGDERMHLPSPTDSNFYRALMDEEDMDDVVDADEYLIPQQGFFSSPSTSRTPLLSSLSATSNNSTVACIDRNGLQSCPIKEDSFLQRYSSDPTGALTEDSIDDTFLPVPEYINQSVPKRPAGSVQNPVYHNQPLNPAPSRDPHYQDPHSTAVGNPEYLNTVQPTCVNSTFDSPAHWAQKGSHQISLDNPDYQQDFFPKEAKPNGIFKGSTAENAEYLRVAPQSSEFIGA
Procedure, shortened: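 Viable-cell readout used absorbance at 490 nm of MTS-derived formazan, 2 h after reagent addition, following 72 h compound treatment at 37 °C, 5% CO2. Cells: puromycin-selected, IL-3-depleted Ba/F3 expressing EGFR exon 20 ASV or NPG; dosing 4-fold series from 10,000 nM.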

[3] = biological target: T3, human EGFR E746-A750 deletion and T790M Mutation (Homo sapiens, UniProt P00533, DEL746-750/T790M); assay: Ba/F3-EGFR-Del/T790M cell anti-proliferative assay (CellTiter 96 MTS, 72 h); settings: Ba/F3-EGFR-Del/T790M cells
T3 construct: expressed in transfected cells; host or cells: Ba/F3 (murine pro-B) cells transduced with lentivirus from pLVX-IRES puro
T3 sequence (P00533 with tags, fused parts or gaps DEL746-750/T790M): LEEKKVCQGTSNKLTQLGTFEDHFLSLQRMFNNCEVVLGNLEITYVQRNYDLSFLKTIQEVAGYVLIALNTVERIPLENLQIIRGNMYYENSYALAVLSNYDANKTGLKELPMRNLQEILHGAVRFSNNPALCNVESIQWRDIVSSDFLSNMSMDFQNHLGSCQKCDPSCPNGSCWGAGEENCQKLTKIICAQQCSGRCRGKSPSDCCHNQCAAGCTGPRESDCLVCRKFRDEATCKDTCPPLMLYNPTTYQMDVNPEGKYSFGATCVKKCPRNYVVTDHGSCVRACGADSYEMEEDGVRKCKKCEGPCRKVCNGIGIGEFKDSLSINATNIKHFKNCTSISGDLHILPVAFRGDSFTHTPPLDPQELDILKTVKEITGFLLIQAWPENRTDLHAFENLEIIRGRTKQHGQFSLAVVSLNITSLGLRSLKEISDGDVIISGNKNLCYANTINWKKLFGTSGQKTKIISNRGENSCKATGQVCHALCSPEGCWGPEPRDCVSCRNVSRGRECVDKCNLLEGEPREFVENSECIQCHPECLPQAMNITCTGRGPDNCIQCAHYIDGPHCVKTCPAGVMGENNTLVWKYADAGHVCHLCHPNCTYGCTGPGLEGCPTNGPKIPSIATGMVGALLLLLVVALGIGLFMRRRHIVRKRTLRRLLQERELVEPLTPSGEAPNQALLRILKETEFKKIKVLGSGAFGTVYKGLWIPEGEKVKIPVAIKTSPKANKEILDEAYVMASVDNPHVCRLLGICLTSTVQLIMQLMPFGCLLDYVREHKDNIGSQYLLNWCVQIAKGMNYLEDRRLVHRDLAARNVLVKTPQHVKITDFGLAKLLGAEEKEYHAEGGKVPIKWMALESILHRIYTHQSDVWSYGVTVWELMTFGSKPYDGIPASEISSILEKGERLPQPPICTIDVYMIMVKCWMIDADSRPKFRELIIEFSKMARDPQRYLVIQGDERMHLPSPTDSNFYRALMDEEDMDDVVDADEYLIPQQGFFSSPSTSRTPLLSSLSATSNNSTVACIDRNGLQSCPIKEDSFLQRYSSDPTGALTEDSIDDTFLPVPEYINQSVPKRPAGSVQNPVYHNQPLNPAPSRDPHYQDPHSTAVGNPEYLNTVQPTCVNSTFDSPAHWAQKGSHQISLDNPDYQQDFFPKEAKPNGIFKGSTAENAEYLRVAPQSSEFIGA
Procedure, shortened: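 Compound exposure: 72 h, 37 °C, 4-fold series topping at 10,000 nM. Target cells are Ba/F3 transduced with EGFR exon 19 deletion plus T790M, selected by puromycin and IL-3 withdrawal. Viable cell number inferred from MTS metabolic conversion, A490 read 2 h after reagent addition.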

[4] = biological target: T4, Her2 exon 20 YVMA insertion (A775_G776ins YVMA) (Homo sapiens, UniProt P04626, INS775YVMA); assay: Ba/F3-Her2 Exon20 YVMA cell anti-proliferative assay (CellTiter 96 MTS, 72 h); settings: Ba/F3-Her2 Exon20 YVMA cells
T4 construct: expressed in transfected cells; host or cells: Ba/F3 (murine pro-B) cells transduced with lentivirus from pLVX-IRES puro
T4 sequence (P04626 with tags, fused parts or gaps INS775YVMA): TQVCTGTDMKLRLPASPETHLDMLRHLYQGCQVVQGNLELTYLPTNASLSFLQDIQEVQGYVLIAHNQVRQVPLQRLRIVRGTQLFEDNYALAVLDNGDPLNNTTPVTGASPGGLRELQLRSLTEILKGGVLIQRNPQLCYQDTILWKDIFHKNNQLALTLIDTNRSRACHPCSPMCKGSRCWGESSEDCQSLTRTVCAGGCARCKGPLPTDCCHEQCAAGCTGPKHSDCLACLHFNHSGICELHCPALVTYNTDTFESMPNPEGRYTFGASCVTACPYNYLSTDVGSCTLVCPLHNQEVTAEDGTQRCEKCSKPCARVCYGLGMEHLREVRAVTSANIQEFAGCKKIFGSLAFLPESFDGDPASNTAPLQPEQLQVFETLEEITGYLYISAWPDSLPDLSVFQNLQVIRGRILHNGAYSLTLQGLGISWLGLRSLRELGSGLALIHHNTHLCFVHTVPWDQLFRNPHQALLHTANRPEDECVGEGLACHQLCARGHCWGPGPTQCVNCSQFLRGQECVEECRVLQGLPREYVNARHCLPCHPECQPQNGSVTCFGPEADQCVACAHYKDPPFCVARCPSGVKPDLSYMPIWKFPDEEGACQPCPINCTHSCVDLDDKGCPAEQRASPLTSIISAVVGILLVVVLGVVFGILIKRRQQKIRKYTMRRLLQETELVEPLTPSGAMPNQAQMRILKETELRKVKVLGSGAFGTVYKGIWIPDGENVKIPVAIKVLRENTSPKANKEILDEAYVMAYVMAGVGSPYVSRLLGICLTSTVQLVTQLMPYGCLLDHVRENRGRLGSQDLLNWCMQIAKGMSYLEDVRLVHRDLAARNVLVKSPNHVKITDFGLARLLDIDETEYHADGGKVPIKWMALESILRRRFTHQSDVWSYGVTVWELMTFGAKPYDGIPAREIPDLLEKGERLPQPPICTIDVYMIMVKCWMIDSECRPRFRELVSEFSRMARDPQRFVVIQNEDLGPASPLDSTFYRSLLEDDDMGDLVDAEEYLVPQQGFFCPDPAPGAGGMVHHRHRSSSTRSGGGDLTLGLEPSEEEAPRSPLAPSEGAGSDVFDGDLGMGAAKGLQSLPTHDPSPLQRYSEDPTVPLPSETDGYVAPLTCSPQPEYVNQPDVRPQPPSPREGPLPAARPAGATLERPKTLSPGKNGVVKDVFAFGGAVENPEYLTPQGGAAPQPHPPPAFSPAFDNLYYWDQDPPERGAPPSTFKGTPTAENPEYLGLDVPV
Procedure, shortened: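 Anti-proliferation: compound series (top 10,000 nM, 4-fold steps) was applied to Ba/F3-Her2 Exon20 YVMA cells grown without IL-3 for 72 h. Viability was read colorimetrically (CellTiter 96 Aqueous One, A490, 2 h reagent incubation).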

T1 sequence (P00533 with tags, fused parts or gaps INS769ASV): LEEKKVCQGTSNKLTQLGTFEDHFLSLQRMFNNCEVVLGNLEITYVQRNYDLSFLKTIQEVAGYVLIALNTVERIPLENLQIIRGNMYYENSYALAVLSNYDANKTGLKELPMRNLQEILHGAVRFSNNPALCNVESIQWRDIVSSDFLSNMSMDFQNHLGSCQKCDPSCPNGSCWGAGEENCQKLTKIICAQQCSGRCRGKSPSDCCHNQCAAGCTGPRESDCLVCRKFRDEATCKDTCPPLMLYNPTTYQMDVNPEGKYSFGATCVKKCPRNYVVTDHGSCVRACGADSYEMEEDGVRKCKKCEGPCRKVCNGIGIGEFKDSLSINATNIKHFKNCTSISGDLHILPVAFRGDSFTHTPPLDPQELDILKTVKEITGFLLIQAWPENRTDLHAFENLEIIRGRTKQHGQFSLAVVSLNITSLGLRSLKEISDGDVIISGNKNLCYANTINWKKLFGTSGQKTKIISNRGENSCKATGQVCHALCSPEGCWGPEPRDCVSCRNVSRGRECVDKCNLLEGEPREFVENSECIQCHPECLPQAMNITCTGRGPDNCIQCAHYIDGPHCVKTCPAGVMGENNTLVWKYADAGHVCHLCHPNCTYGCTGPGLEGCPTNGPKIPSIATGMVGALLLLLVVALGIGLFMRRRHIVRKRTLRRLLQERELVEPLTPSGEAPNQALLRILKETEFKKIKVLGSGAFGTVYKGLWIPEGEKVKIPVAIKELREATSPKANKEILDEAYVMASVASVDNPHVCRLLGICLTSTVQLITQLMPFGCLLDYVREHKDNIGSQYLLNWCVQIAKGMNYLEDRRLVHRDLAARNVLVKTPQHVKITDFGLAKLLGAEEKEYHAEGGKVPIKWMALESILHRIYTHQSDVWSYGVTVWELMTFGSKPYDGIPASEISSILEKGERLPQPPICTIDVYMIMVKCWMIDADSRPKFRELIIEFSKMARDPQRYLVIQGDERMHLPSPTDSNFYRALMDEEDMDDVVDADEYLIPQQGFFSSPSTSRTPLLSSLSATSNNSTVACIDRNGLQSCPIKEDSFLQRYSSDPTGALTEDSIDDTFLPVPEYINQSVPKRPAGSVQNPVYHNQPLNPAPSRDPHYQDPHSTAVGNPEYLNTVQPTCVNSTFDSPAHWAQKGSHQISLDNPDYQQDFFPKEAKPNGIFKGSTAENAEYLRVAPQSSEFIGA

Row | IC50 [1] | IC50 [2] | IC50 [4] | Structure (SMILES) | EGFR exon 19 deletion and exon 20 T790M mutation IC50 [3]
1 | 100 to 500 nM | < 100 nM | 100 to 500 nM | C=CC(=O)Nc1cc(Nc2ncc(C(=O)NC)c(-c3cn4c5c(cccc35)CCC4)n2)c(OC)cc1N(C)CCN(C)C [Example 54, 2-((5-acrylamido-4-((2-(dimethylamino)ethyl)(methyl)amino)-2-methoxyphenyl)amino)-4-(5,6-dihydro-4H-pyrrolo[3,2,1-ij]quinolin-1-yl)-N-methylpyrimidine-5-carboxamide] | A (IC50 value for the indicated mutant below about 100 nM)
2 | 100 to 500 nM | < 100 nM | 100 to 500 nM | C=CC(=O)Nc1cc(Nc2ncc(C#N)c(-c3cn4c5c(cccc35)N(C)C(=O)C4)n2)c(OC)cc1N1CC[C@@H](N(C)C)C1 [Example 55, (R)-N-(5-((5-cyano-4-(1-methyl-2-oxo-2,3-dihydro-1H-pyrrolo[1,2,3-de]quinoxalin-6-yl)pyrimidin-2-yl)amino)-2-(3-(dimethylamino)pyrrolidin-1-yl)-4-methoxyphenyl)acrylamide] | A (IC50 value for the indicated mutant below about 100 nM)
3 | 500 to 1000 nM | 100 to 500 nM | 500 to 1000 nM | C=CC(=O)Nc1cc(Nc2ncc(C#N)c(-c3cn4c5c(cccc35)N(C)CC4)n2)c(OC)cc1N(C)CCN(C)C [Example 56, N-(5-((5-cyano-4-(1-methyl-2,3-dihydro-1H-pyrrolo[1,2,3-de]quinoxalin-6-yl)pyrimidin-2-yl)amino)-2-((2-(dimethylamino)ethyl)-(methyl)amino)-4-methoxyphenyl)acrylamide] | A (IC50 value for the indicated mutant below about 100 nM)
4 | < 100 nM | < 100 nM | 100 to 500 nM | C=CC(=O)Nc1cc(Nc2ncc(Cl)c(-c3nn4c5c(cccc35)OCC4)n2)c(OC)cc1N(C)CCN(C)C [Example 57, N-(5-((5-chloro-4-(2,3-dihydro-[1,4]oxazino[2,3,4-hi]indazol-6-yl)pyrimidin-2-yl)amino)-2-((2-(dimethylamino)ethyl)(methyl)amino)-4-methoxyphenyl)acrylamide] | A (IC50 value for the indicated mutant below about 100 nM)
5 | < 100 nM | < 100 nM | 100 to 500 nM | C=CC(=O)Nc1cc(Nc2ncc(SCCO)c(-c3cn4c5c(cccc35)CCC4)n2)c(OC)cc1N(C)CCN(C)C [Example 58, N-(5-((4-(5,6-dihydro-4H-pyrrolo[3,2,1-ij]quinolin-1-yl)-5-((2-hydroxyethyl)thio)pyrimidin-2-yl)amino)-2-((2-(dimethylamino)ethyl)(methyl)amino)-4-methoxyphenyl)acrylamide] | A (IC50 value for the indicated mutant below about 100 nM)
6 | > 1000 nM | > 1000 nM | > 1000 nM | C=CC(=O)Nc1cc(Nc2ncc(N(C)S(C)(=O)=O)c(-c3cn4c5c(cccc35)CCC4)n2)c(OC)cc1N(C)CCN(C)C [Example 59, N-(5-((4-(5,6-dihydro-4H-pyrrolo[3,2,1-ij]quinolin-1-yl)-5-(N-methylmethylsulfonamido)pyrimidin-2-yl)amino)-2-((2-(dimethylamino)ethyl)(methyl)amino)-4-methoxyphenyl)acrylamide] | D (IC50 value for the indicated mutant greater than about 1 μM)

Second part, the molecule before the results:

Row | Structure (SMILES) | IC50 [1] | IC50 [2] | IC50 [4] | EGFR exon 19 deletion and exon 20 T790M mutation IC50 [3]
7 | C=CC(=O)Nc1cc(Nc2ncc(/C=C\C#N)c(-c3cn4c5c(cccc35)CCC4)n2)c(OC)cc1N(C)CCN(C)C [Example 43, (Z)-N-(5-((5-(2-cyanovinyl)-4-(5,6-dihydro-4H-pyrrolo[3,2,1-ij]quinolin-1-yl)pyrimidin-2-yl)amino)-2-((2-(dimethylamino)ethyl)(methyl)amino)-4-methoxyphenyl)acrylamide] | < 100 nM | < 100 nM | < 100 nM | A (IC50 value for the indicated mutant below about 100 nM)
8 | C=CC(=O)Nc1cc(Nc2ncc(C(=O)OC)c(-c3cn4c5c(cccc35)CCC4)n2)c(OC)cc1N(C)CCN(C)C [Example 44, methyl 2-((5-acrylamido-4-((2-(dimethylamino)ethyl)(methyl)amino)-2-methoxyphenyl)amino)-4-(5,6-dihydro-4H-pyrrolo[3,2,1-ij]quinolin-1-yl)pyrimidin-5-carboxylate] | < 100 nM | < 100 nM | < 100 nM | A (IC50 value for the indicated mutant below about 100 nM)
9 | C=CC(=O)Nc1cc(Nc2ncc(C(=O)O)c(-c3cn4c5c(cccc35)CCC4)n2)c(OC)cc1N(C)CCN(C)C [Example 45, 2-((5-acrylamido-4-((2-(dimethylamino)ethyl)(methyl)amino)-2-methoxyphenyl)amino)-4-(5,6-dihydro-4H-pyrrolo[3,2,1-ij]quinolin-1-yl)pyrimidine-5-carboxylic acid] | > 1000 nM | > 1000 nM | > 1000 nM | D (IC50 value for the indicated mutant greater than about 1 μM)
10 | C=CC(=O)Nc1cc(Nc2ncc(-c3cnn(C)c3)c(-c3cn4c5c(cccc35)CCC4)n2)c(OC)cc1N(C)CCN(C)C [Example 49, N-(5-((4-(5,6-dihydro-4H-pyrrolo[3,2,1-ij]quinolin-1-yl)-5-(1-methyl-1H-pyrazol-4-yl)pyrimidin-2-yl)amino)-2-((2-(dimethylamino)ethyl)(methyl)amino)-4-methoxyphenyl)acrylamide] | < 100 nM | < 100 nM | < 100 nM | A (IC50 value for the indicated mutant below about 100 nM)
11 | C=CC(=O)Nc1cc(Nc2ncc(OCC#N)c(-c3cn4c5c(cccc35)CCC4)n2)c(OC)cc1N(C)CCN(C)C [Example 50, N-(5-((5-(cyanomethoxy)-4-(5,6-dihydro-4H-pyrrolo[3,2,1-ij]quinolin-1-yl)pyrimidin-2-yl)amino)-2-((2-(dimethylamino)ethyl)(methyl)amino)-4-methoxyphenyl)acrylamide] | < 100 nM | < 100 nM | < 100 nM | A (IC50 value for the indicated mutant below about 100 nM)
12 | C=CC(=O)Nc1cc(Nc2ncc(OCC(C)O)c(-c3cn4c5c(cccc35)CCC4)n2)c(OC)cc1N(C)CCN(C)C (centres unmarked) [Example 51, N-(5-((4-(5,6-dihydro-4H-pyrrolo[3,2,1-ij]quinolin-1-yl)-5-(2-hydroxypropoxy)pyrimidin-2-yl)amino)-2-((2-(dimethylamino)ethyl)(methyl)amino)-4-methoxyphenyl)acrylamide] | < 100 nM | < 100 nM | 100 to 500 nM | A (IC50 value for the indicated mutant below about 100 nM)
13 | C=CC(=O)Nc1cc(Nc2ncc(C#N)c(-c3cn4c5c(cccc35)N(C)C(=O)C4)n2)c(OC)cc1N(C)CCN(C)C [Example 52, N-(5-((5-cyano-4-(1-methyl-2-oxo-2,3-dihydro-1H-pyrrolo[1,2,3-de]quinoxalin-6-yl)pyrimidin-2-yl)amino)-2-((2-(dimethylamino)ethyl)(methyl)amino)-4-methoxyphenyl)acrylamide] | < 100 nM | < 100 nM | < 100 nM | A (IC50 value for the indicated mutant below about 100 nM)
14 | C=CC(=O)Nc1cc(Nc2ncc(-c3ccnn3C)c(-c3cn4c5c(cccc35)CCC4)n2)c(OC)cc1N(C)CCN(C)C [Example 53, N-(5-((4-(5,6-dihydro-4H-pyrrolo[3,2,1-ij]quinolin-1-yl)-5-(1-methyl-1H-pyrazol-5-yl)pyrimidin-2-yl)amino)-2-((2-(dimethylamino)ethyl)(methyl)amino)-4-methoxyphenyl)acrylamide] | < 100 nM | < 100 nM | < 100 nM | A (IC50 value for the indicated mutant below about 100 nM)

— patent US20170166598A1, “HETEROARYL COMPOUNDS FOR KINASE INHIBITION” (ARIAD PHARMACEUTICALS, INC., priority 2014, published 2017)
